Assay type in all cases: functional
One assay has as its system Staphylococcus aureus. As to the kind of experiment: Antimicrobial activity against Staphylococcus aureus MTCC 3160 assessed as growth inhibition after 24 hr by broth microdilution method.
A further assay relates to Pseudomonas aeruginosa. Kind of assay: Antimicrobial activity against Pseudomonas aeruginosa MTCC 424 assessed as growth inhibition after 24 hr by broth microdilution method.
In another assay the test system is Escherichia coli. As to the kind of experiment: Antimicrobial activity against Escherichia coli MTCC 43 assessed as growth inhibition after 24 hr by broth microdilution method. On the technique in general: Dilution methods test growth across graded concentrations, often in twofold steps.
The subject of the next assay is Trichophyton rubrum. Kind of assay: Antimicrobial activity against Trichophyton rubrum MTCC 296 assessed as growth inhibition after 5 days by broth microdilution method.
The next assay relates to Pichia kudriavzevii. Kind of assay: Antimicrobial activity against Pichia kudriavzevii MTCC 231 assessed as growth inhibition after 24 hr by broth microdilution method.
For a further assay, the system named is Aspergillus sydowii. Kind of assay: Antimicrobial activity against Aspergillus sydowii MTCC 4335 assessed as growth inhibition after 5 days by broth microdilution method.
For a further assay, the system named is Micrococcus luteus. As to the kind of experiment: Antimicrobial activity against Micrococcus luteus MTCC 2470 assessed as growth inhibition after 24 hr by broth microdilution method.
Another assay has as its system Klebsiella pneumoniae. Kind of assay: Antimicrobial activity against Klebsiella pneumoniae MTCC 109 assessed as growth inhibition after 24 hr by broth microdilution method.
Another assay deals with Candida albicans. As to the kind of experiment: Antimicrobial activity against Candida albicans MTCC 3017 assessed as growth inhibition after 24 hr by broth microdilution method.
The next assay has as its system Bacillus subtilis. Kind of assay: Antimicrobial activity against Bacillus subtilis MTCC 121 assessed as growth inhibition after 24 hr by broth microdilution method.
The subject of another assay is Aspergillus niger. As to the kind of experiment: Antimicrobial activity against Aspergillus niger MTCC 404 assessed as growth inhibition after 5 days by broth microdilution method.
In a further assay the test system is Enterobacter cloacae. Kind of assay: Antimicrobial activity against Enterobacter cloacae MTCC 509 assessed as growth inhibition after 24 hr by broth microdilution method.
The next assay deals with Aspergillus parasiticus. As to the kind of experiment: Antimicrobial activity against Aspergillus parasiticus MTCC 2797 assessed as growth inhibition after 5 days by broth microdilution method.
The test system of a further assay is Burkholderia cepacia. Kind of assay: Antimicrobial activity against Burkholderia cepacia MTCC 438 assessed as growth inhibition after 24 hr by broth microdilution method.

Values after ≈ are worked out from the molar mass of the structure shown. Active and inactive are the calls of the source. The calls are words filed in the database; no cut-off is given here.

The record followed here is ChEMBL document CHEMBL3046948, “Synthesis and SAR investigation of natural phenylpropene-derived methoxylated cinnamaldehydes and their novel Schiff bases as potent antimicrobial and antioxidant agents” (2013).

For orientation: MIC means the lowest concentration found to suppress growth. Take `COc1ccc(C=O)cc1` [ANISALDEHYDE]: the minimal inhibitory concentration (MIC) stood at 1.83 mM (≈ 249 µg/mL) with Staphylococcus aureus (MTCC 3160, 24 h); 14.7 mM (≈ 2000 µg/mL) in the assay with Escherichia coli (MTCC 43, 24 h); 0.92 mM (≈ 125 µg/mL) with Trichophyton rubrum (MTCC 296, 120 h); 3.67 mM (≈ 500 µg/mL) in the assay on Pichia kudriavzevii (MTCC 231, 24 h); 1.83 mM (≈ 249 µg/mL) with Aspergillus sydowii (MTCC 4335, 120 h); 14.7 mM (≈ 2000 µg/mL) with Klebsiella pneumoniae (MTCC 109, 24 h). The minimum inhibitory concentration (MIC) with Candida albicans (MTCC 3017, 24 h) is 3.67 mM (≈ 500 µg/mL); in the assay with Bacillus subtilis (MTCC 121, 24 h) it was 14.7 mM (≈ 2000 µg/mL); in the assay with Aspergillus niger (MTCC 404, 120 h), 7.34 mM (≈ 999 µg/mL); in the assay on Enterobacter cloacae (MTCC 509, 24 h), 14.7 mM (≈ 2000 µg/mL); in the assay with Aspergillus parasiticus (MTCC 2797, 120 h), 1.83 mM (≈ 249 µg/mL). In addition, the MIC result in the assay on Pseudomonas aeruginosa and in the assay with Micrococcus luteus was “inactive” throughout.

As for `Cc1ccc(/C=C/C=O)c([N+](=O)[O-])c1`, the MIC in the assay with Staphylococcus aureus (MTCC 3160, 24 h) is 10.5 mM (≈ 2000 µg/mL); with Burkholderia cepacia (MTCC 438, 24 h) it was 2.61 mM (≈ 499 µg/mL); in the assay on Pseudomonas aeruginosa (MTCC 424, 24 h), 2.61 mM (≈ 499 µg/mL); with Escherichia coli (MTCC 43, 24 h), 2.61 mM (≈ 499 µg/mL); in the assay with Micrococcus luteus (MTCC 2470, 24 h) it was 2.61 mM (≈ 499 µg/mL); with Klebsiella pneumoniae (MTCC 109, 24 h), 10.5 mM (≈ 2000 µg/mL). Moreover, the MIC is 2.61 mM (≈ 499 µg/mL) in the assay with Bacillus subtilis (MTCC 121, 24 h) and 10.5 mM (≈ 2000 µg/mL) in the assay on Enterobacter cloacae (MTCC 509, 24 h). The MIC entry in the assay on Trichophyton rubrum, with Pichia kudriavzevii, in the assay on Aspergillus sydowii, with Candida albicans, in the assay on Aspergillus niger and with Aspergillus parasiticus was “inactive” throughout.

Regarding `C/C=C/c1cc(OC)c(OC)cc1OC` [TRANS-ASARONE], the MIC entry with Staphylococcus aureus, with Burkholderia cepacia, in the assay with Pseudomonas aeruginosa, in the assay on Escherichia coli, with Micrococcus luteus and with Klebsiella pneumoniae was “inactive” in each case. For the same compound, the MIC result in the assay on Bacillus subtilis is “inactive”. In addition, the MIC in the assay with Trichophyton rubrum (MTCC 296, 120 h) stood at 0.6 mM (≈ 125 µg/mL); in the assay on Pichia kudriavzevii (MTCC 231, 24 h), 1.2 mM (≈ 250 µg/mL); with Aspergillus sydowii (MTCC 4335, 120 h), 2.4 mM (≈ 500 µg/mL); in the assay with Candida albicans (MTCC 3017, 24 h), 0.6 mM (≈ 125 µg/mL); with Aspergillus niger (MTCC 404, 120 h), 4.8 mM (≈ 1000 µg/mL); in the assay with Enterobacter cloacae (MTCC 509, 24 h), 9.6 mM (≈ 2000 µg/mL). Further, the MIC in the assay with Aspergillus parasiticus (MTCC 2797, 120 h) turned out to be 1.2 mM (≈ 250 µg/mL).

As to NYSTATIN, the MIC in the assay on Trichophyton rubrum was found to be 0.008 mM; in the assay on Pichia kudriavzevii, 0.03 mM; with Aspergillus sydowii, 0.004 mM; in the assay with Candida albicans, 0.008 mM; in the assay on Aspergillus niger, 0.03 mM; with Aspergillus parasiticus, 0.06 mM.

In the case of `CN(C)c1ccc(/C=C/C=O)cc1`, the MIC entry with Staphylococcus aureus, in the assay on Burkholderia cepacia, with Pseudomonas aeruginosa, in the assay with Escherichia coli, with Trichophyton rubrum and in the assay with Pichia kudriavzevii was “inactive” each time. The MIC entry with Aspergillus sydowii, in the assay with Klebsiella pneumoniae, with Candida albicans, with Bacillus subtilis, with Aspergillus niger and in the assay on Aspergillus parasiticus was “inactive” throughout. For the same compound, the minimum inhibitory concentration (MIC) in the assay on Micrococcus luteus (MTCC 2470, 24 h) is 11.4 mM (≈ 2000 µg/mL); in the assay on Enterobacter cloacae (MTCC 509, 24 h), 11.4 mM (≈ 2000 µg/mL).

With `CCOc1ccc(/C=C/C=O)cc1OC`, the minimal inhibitory concentration (MIC) in the assay on Staphylococcus aureus (MTCC 3160, 24 h) turned out to be 2.42 mM (≈ 499 µg/mL); in the assay on Burkholderia cepacia (MTCC 438, 24 h), 4.85 mM (≈ 1000 µg/mL); in the assay on Pseudomonas aeruginosa (MTCC 424, 24 h), 4.85 mM (≈ 1000 µg/mL); with Escherichia coli (MTCC 43, 24 h), 9.7 mM (≈ 2000 µg/mL); in the assay on Trichophyton rubrum (MTCC 296, 120 h) it was 2.42 mM (≈ 499 µg/mL); in the assay on Pichia kudriavzevii (MTCC 231, 24 h) it was 4.85 mM (≈ 1000 µg/mL). In addition, the MIC came out at 4.85 mM (≈ 1000 µg/mL) in the assay with Aspergillus sydowii (MTCC 4335, 120 h); 4.85 mM (≈ 1000 µg/mL) in the assay with Micrococcus luteus (MTCC 2470, 24 h); 9.7 mM (≈ 2000 µg/mL) in the assay on Klebsiella pneumoniae (MTCC 109, 24 h); 2.42 mM (≈ 499 µg/mL) with Candida albicans (MTCC 3017, 24 h); 4.85 mM (≈ 1000 µg/mL) in the assay with Bacillus subtilis (MTCC 121, 24 h); 4.85 mM (≈ 1000 µg/mL) with Aspergillus niger (MTCC 404, 120 h). Moreover, the MIC with Enterobacter cloacae (MTCC 509, 24 h) turned out to be 9.7 mM (≈ 2000 µg/mL); in the assay on Aspergillus parasiticus (MTCC 2797, 120 h) it was 2.42 mM (≈ 499 µg/mL).

On to `C/C=C/c1ccc2c(c1)OCO2` [ISOSAFROLE], for which the MIC result in the assay on Staphylococcus aureus, in the assay on Burkholderia cepacia, with Pseudomonas aeruginosa, in the assay with Escherichia coli, with Pichia kudriavzevii and in the assay on Aspergillus sydowii was “inactive” throughout. The MIC result in the assay with Micrococcus luteus, in the assay on Klebsiella pneumoniae, in the assay on Candida albicans, in the assay on Bacillus subtilis, with Aspergillus niger and with Enterobacter cloacae was “inactive” throughout. Besides, the MIC entry in the assay with Aspergillus parasiticus is “inactive”. Also, the MIC in the assay with Trichophyton rubrum (MTCC 296, 120 h) worked out at 3.08 mM (≈ 500 µg/mL).
